# Reference: PubChem BioAssay (NCI)
#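 Assay format: 96-well plates, 48-hour exposure. GI50: concentration for 50% inhibition of growth. TGI denotes the concentration required for complete inhibition of growth.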
# Assays:
# Assay in all cases: inhibition of tumour cell growth, NCI panel, 48 h
# HS 578T breast = system: HS 578T breast
# TK-10 renal = system: TK-10 renal
# OVCAR-8 ovarian = system: OVCAR-8 ovarian
# HT29 colon = system: HT29 colon
# SK-MEL-5 melanoma = system: SK-MEL-5 melanoma
# ACHN renal = system: ACHN renal
# SF-539 CNS = system: SF-539 CNS
# OVCAR-5 ovarian = system: OVCAR-5 ovarian
# LOX IMVI melanoma = system: LOX IMVI melanoma
# A498 renal = system: A498 renal
# OVCAR-3 ovarian = system: OVCAR-3 ovarian
# RXF 393 renal = system: RXF 393 renal
# NCI-H23 lung = system: NCI-H23 lung
# HCT-15 colon = system: HCT-15 colon
# SW-620 colon = system: SW-620 colon
# SR leukemia = system: SR leukemia
# SK-MEL-2 melanoma = system: SK-MEL-2 melanoma
# 786-0 renal = system: 786-0 renal
# COLO 205 colon = system: COLO 205 colon
# NCI/ADR-RES ovarian = system: NCI/ADR-RES ovarian
# EKVX NSCLC = system: EKVX NSCLC
# UACC-62 melanoma = system: UACC-62 melanoma
# HL-60(TB) leukemia = system: HL-60(TB) leukemia
# KM12 colon = system: KM12 colon
# BT-549 breast = system: BT-549 breast
# A549 NSCLC = system: A549 NSCLC
# NCI-H460 lung = system: NCI-H460 lung
# SK-MEL-28 melanoma = system: SK-MEL-28 melanoma
# HOP-92 NSCLC = system: HOP-92 NSCLC
# PC-3 prostate = system: PC-3 prostate
# U251 CNS = system: U251 CNS
# MDA-MB-231 breast = system: MDA-MB-231 breast
# M14 melanoma = system: M14 melanoma
# RPMI-8226 leukemia = system: RPMI-8226 leukemia
# HOP-62 NSCLC = system: HOP-62 NSCLC
# SF-268 CNS = system: SF-268 CNS
# UACC-257 melanoma = system: UACC-257 melanoma
# OVCAR-4 ovarian = system: OVCAR-4 ovarian
# NCI-H226 lung = system: NCI-H226 lung
# SK-OV-3 ovarian = system: SK-OV-3 ovarian
# SNB-19 CNS = system: SNB-19 CNS
# MDA-MB-435 = system: MDA-MB-435
# IGROV1 ovarian = system: IGROV1 ovarian
# SN12C renal = system: SN12C renal
# MALME-3M melanoma = system: MALME-3M melanoma
# HCT-116 colon = system: HCT-116 colon
# MOLT-4 leukemia = system: MOLT-4 leukemia
# SF-295 CNS = system: SF-295 CNS
# UO-31 renal = system: UO-31 renal
# K-562 leukemia = system: K-562 leukemia
# NCI-H522 lung = system: NCI-H522 lung
# DU-145 prostate = system: DU-145 prostate
# CCRF-CEM leukemia = system: CCRF-CEM leukemia
# CAKI-1 renal = system: CAKI-1 renal
# T-47D breast = system: T-47D breast
# SNB-75 CNS = system: SNB-75 CNS
# MCF7 breast = system: MCF7 breast
# HCC-2998 colon = system: HCC-2998 colon
structure (smiles),measurement,setting,value
O=C(NC1CCN(Cc2ccccc2)CC1)c1ccccc1I,TGI,HS 578T breast,50.2 µM
same,TGI,TK-10 renal,63.6 µM
same,TGI,OVCAR-8 ovarian,> 100 µM
same,TGI,HT29 colon,34.8 µM
same,TGI,SK-MEL-5 melanoma,31 µM
same,TGI,ACHN renal,> 100 µM
same,TGI,SF-539 CNS,63.1 µM
same,TGI,OVCAR-5 ovarian,58 µM
same,TGI,LOX IMVI melanoma,32.6 µM
same,TGI,A498 renal,> 100 µM
same,TGI,OVCAR-3 ovarian,> 100 µM
same,TGI,RXF 393 renal,> 100 µM
same,TGI,NCI-H23 lung,72.1 µM
same,TGI,HCT-15 colon,36.7 µM
same,TGI,SW-620 colon,38.9 µM
same,TGI,SR leukemia,> 100 µM
same,TGI,SK-MEL-2 melanoma,48.7 µM
same,TGI,786-0 renal,63.4 µM
same,TGI,COLO 205 colon,34.8 µM
same,TGI,NCI/ADR-RES ovarian,92.3 µM
same,TGI,EKVX NSCLC,> 100 µM
same,TGI,UACC-62 melanoma,34.9 µM
same,TGI,HL-60(TB) leukemia,> 100 µM
same,TGI,KM12 colon,34.6 µM
same,TGI,BT-549 breast,> 100 µM
same,TGI,A549 NSCLC,> 100 µM
same,TGI,NCI-H460 lung,67.7 µM
same,TGI,SK-MEL-28 melanoma,36.5 µM
same,TGI,HOP-92 NSCLC,92.4 µM
same,TGI,PC-3 prostate,98.8 µM
same,TGI,U251 CNS,63.3 µM
same,TGI,MDA-MB-231 breast,41.1 µM
same,TGI,M14 melanoma,33.4 µM
same,TGI,RPMI-8226 leukemia,> 100 µM
same,TGI,HOP-62 NSCLC,37.9 µM
same,TGI,SF-268 CNS,> 100 µM
same,TGI,UACC-257 melanoma,38 µM
same,TGI,OVCAR-4 ovarian,> 100 µM
same,TGI,NCI-H226 lung,72.8 µM
same,TGI,SK-OV-3 ovarian,43.6 µM
same,TGI,SNB-19 CNS,> 100 µM
same,TGI,MDA-MB-435,32.4 µM
same,TGI,IGROV1 ovarian,> 100 µM
same,TGI,SN12C renal,> 100 µM
same,TGI,MALME-3M melanoma,31.6 µM
same,TGI,HCT-116 colon,31.1 µM
same,TGI,MOLT-4 leukemia,55.1 µM
same,TGI,SF-295 CNS,36.9 µM
same,TGI,UO-31 renal,30.1 µM
same,TGI,K-562 leukemia,> 100 µM
same,TGI,NCI-H522 lung,27.6 µM
same,TGI,DU-145 prostate,> 100 µM
same,TGI,CCRF-CEM leukemia,86.2 µM
same,TGI,CAKI-1 renal,> 100 µM
same,TGI,T-47D breast,66.1 µM
Cn1cc(C2=C(c3cccc(NCC(O)CO)c3)C(=O)NC2=O)c2cc(Cl)ccc21 (centres undefined),GI50,HS 578T breast,0.214 µM
same,TGI,HS 578T breast,5.77 µM
same,GI50,TK-10 renal,5.67 µM
same,TGI,TK-10 renal,16.8 µM
same,GI50,OVCAR-8 ovarian,5.08 µM
same,TGI,OVCAR-8 ovarian,17.4 µM
same,GI50,HT29 colon,2.78 µM
same,TGI,HT29 colon,11.8 µM
same,GI50,SK-MEL-5 melanoma,3.32 µM
same,TGI,SK-MEL-5 melanoma,7.14 µM
same,GI50,ACHN renal,3.53 µM
same,TGI,ACHN renal,> 19.6 µM
same,GI50,SF-539 CNS,1.78 µM
same,TGI,SF-539 CNS,6.9 µM
same,GI50,OVCAR-5 ovarian,9.63 µM
same,TGI,OVCAR-5 ovarian,> 20.9 µM
same,GI50,LOX IMVI melanoma,3.05 µM
same,TGI,LOX IMVI melanoma,15.1 µM
same,GI50,A498 renal,0.0817 µM
same,TGI,A498 renal,4.43 µM
same,GI50,OVCAR-3 ovarian,1.06 µM
same,TGI,OVCAR-3 ovarian,7.78 µM
same,GI50,RXF 393 renal,2.82 µM
same,TGI,RXF 393 renal,7.18 µM
same,GI50,NCI-H23 lung,4.64 µM
same,TGI,NCI-H23 lung,13.3 µM
same,GI50,HCT-15 colon,5.97 µM
same,TGI,HCT-15 colon,> 25 µM
same,GI50,SW-620 colon,4.26 µM
same,TGI,SW-620 colon,15.7 µM
same,GI50,SR leukemia,3.03 µM
same,TGI,SR leukemia,> 25 µM
same,GI50,SK-MEL-2 melanoma,3.58 µM
same,TGI,SK-MEL-2 melanoma,10 µM
same,GI50,786-0 renal,4.31 µM
same,TGI,786-0 renal,16.5 µM
same,GI50,COLO 205 colon,2.74 µM
same,TGI,COLO 205 colon,6.17 µM
same,GI50,NCI/ADR-RES ovarian,12.5 µM
same,TGI,NCI/ADR-RES ovarian,> 25 µM
same,GI50,UACC-62 melanoma,4.66 µM
same,TGI,UACC-62 melanoma,11.6 µM
same,GI50,HL-60(TB) leukemia,6.9 µM
same,TGI,HL-60(TB) leukemia,17.1 µM
same,GI50,KM12 colon,2.45 µM
same,TGI,KM12 colon,9.5 µM
same,GI50,BT-549 breast,3.82 µM
same,TGI,BT-549 breast,9.3 µM
same,GI50,A549 NSCLC,4.74 µM
same,TGI,A549 NSCLC,17.6 µM
same,GI50,NCI-H460 lung,5.45 µM
same,TGI,NCI-H460 lung,> 25 µM
same,GI50,SK-MEL-28 melanoma,5.68 µM
same,TGI,SK-MEL-28 melanoma,16.1 µM
same,GI50,SNB-75 CNS,3.45 µM
same,TGI,SNB-75 CNS,9.55 µM
same,GI50,HOP-92 NSCLC,8.16 µM
same,TGI,HOP-92 NSCLC,14.1 µM
same,GI50,PC-3 prostate,2.88 µM
same,TGI,PC-3 prostate,12.9 µM
same,GI50,U251 CNS,2.33 µM
same,TGI,U251 CNS,13.7 µM
same,GI50,MDA-MB-231 breast,5.94 µM
same,TGI,MDA-MB-231 breast,15.5 µM
same,GI50,M14 melanoma,6.59 µM
same,TGI,M14 melanoma,18.4 µM
same,GI50,RPMI-8226 leukemia,5.56 µM
same,TGI,RPMI-8226 leukemia,13.9 µM
same,GI50,HOP-62 NSCLC,4.9 µM
same,TGI,HOP-62 NSCLC,18 µM
same,GI50,SF-268 CNS,4.46 µM
same,TGI,SF-268 CNS,10.5 µM
same,GI50,UACC-257 melanoma,5.51 µM
same,TGI,UACC-257 melanoma,15.4 µM
same,GI50,OVCAR-4 ovarian,1.87 µM
same,TGI,OVCAR-4 ovarian,11.6 µM
same,GI50,NCI-H226 lung,3.34 µM
same,TGI,NCI-H226 lung,11.9 µM
same,GI50,SK-OV-3 ovarian,4.78 µM
same,TGI,SK-OV-3 ovarian,> 23 µM
same,GI50,SNB-19 CNS,7.28 µM
same,TGI,SNB-19 CNS,19.6 µM
same,GI50,MDA-MB-435,5.9 µM
same,TGI,MDA-MB-435,> 20.6 µM
same,GI50,IGROV1 ovarian,5.62 µM
same,TGI,IGROV1 ovarian,15.1 µM
same,GI50,SN12C renal,4.62 µM
same,TGI,SN12C renal,16.5 µM
same,GI50,MALME-3M melanoma,7.84 µM
same,TGI,MALME-3M melanoma,14.8 µM
same,GI50,HCT-116 colon,2.4 µM
same,TGI,HCT-116 colon,> 25 µM
same,GI50,MOLT-4 leukemia,4.2 µM
same,TGI,MOLT-4 leukemia,18 µM
same,GI50,SF-295 CNS,0.237 µM
same,TGI,SF-295 CNS,8.94 µM
same,GI50,MCF7 breast,0.356 µM
same,TGI,MCF7 breast,12.6 µM
same,GI50,UO-31 renal,5.99 µM
same,TGI,UO-31 renal,17.6 µM
same,GI50,K-562 leukemia,2.19 µM
same,TGI,K-562 leukemia,> 25 µM
same,GI50,NCI-H522 lung,2.45 µM
same,TGI,NCI-H522 lung,11.4 µM
same,GI50,DU-145 prostate,5.58 µM
same,TGI,DU-145 prostate,> 19.3 µM
same,GI50,CCRF-CEM leukemia,3.92 µM
same,TGI,CCRF-CEM leukemia,> 21.8 µM
same,GI50,CAKI-1 renal,2.56 µM
same,TGI,CAKI-1 renal,13.2 µM
same,GI50,T-47D breast,4.29 µM
same,TGI,T-47D breast,15 µM
same,GI50,HCC-2998 colon,6.56 µM
same,TGI,HCC-2998 colon,17.9 µM
